This is an account of results in patent US20090317376A1, “Compositions And Methods For Lipo Modeling” (Georgetown University MEDICAL SCHOOL, priority 2005, published 2009).

This test has as its system human fat pads. The test can be described thus: Human fat xenograft in nude athymic mice. Format: in vivo. Here is the method:
In addition to augmenting mouse fat with NPY, human fat from elective liposuction surgery is harvested by using a closed syringe system (Cell Friendly, Tulip Medical) to minimize cell trauma during harvest and aliquots of 100 μl are injected subcutaneously into a nude athymic mouse. Slow release pellets of NPY or placebo are subcutaneously implanted within 1 cm of the fat pad, replaced 2 weeks later, and then harvested after 4 weeks of formation of fat pads. Ultrasound is used to monitor vascularization of fat pads at various time points. The time-course of expression of the NPY system and its downstream mediators is determined in relation to innervation, vascularization and fat growth (by MRI, ultrasound, IHC). Dependence of adipogenesis on angiogenesis is assessed by comparing non-specific, antiangiogenic therapy with the blockade of the NPY-Y2 angiogenic pathway. […] This observation is confirmed by ultrasound (FIG. 7, bottom).
Human fat implantation: The processed fat for injection is loaded into syringes. The nude mice are anesthetized and slow release pellets inserted as described above. A small nick is made with a pair of sterile scissors in the close proximity of the pellets and 100 μl of fat is implanted using an 18 gauge Coleman infiltration cannula (Byron Medical) attached to the syringe. If necessary, the skin wound is closed with medical cyanoacrylate and the mouse is allowed to recover. The fat pad growth is monitored and the sample harvested as described above.
Ultrasonography: The mice are anesthetized by inhalation of isoflurane 1-3% in oxygen, hair removed with depilatory cream and a sterile water based ultrasonic gel is applied to the area (Aquasonic gel—Visual Sonics). The mouse is placed in the Visual Sonics mouse holder containing a thermostatically controlled heating pad to maintain mouse body temperature. The imaging is performed with a small animal ultrasound system, Visual Sonics Vivo 660 (55 MHz).
1. Cell culture: 3T3-L1 preadipocyte cells, (gift from Dr. Lane,^34) were cultured in DMEM high glucose media with glutamine, 10% calf sera (Gemini Bioproducts), d-Biotin (8 μg/ml) and Pantothenate (8 μg/ml) (Sigma). SK-N-BE(2) neuroblastoma cells (ATCC) were cultured in EMEM/F12K with 10% fetal bovine sera (FBS). HMVEC endothelial cells (Cambrex) were cultured in endothelial cell growth media (Cambrex). All media was supplemented with 100 units/ml penicillin, 100 μg/ml streptomycin and […] amphotericin. 2. […] After 24 h, cells were harvested in a 96-well harvester (Tomtec) and counted in a Betaplate Liquid Scintillation Counter (Wallac). […] After 48 hr, the cells were counted with a Beckman Coulter Counter. […]
(In general: A xenograft is tissue or cells of one species grown in another, often human tumour cells in immunodeficient mice.)

Setting [1] is: NPY pellet vs placebo pellet, FIG. 7.

“Also recorded” adds a separate entry of the source.

neuropeptide Y [NPY]: the “xenograft vascularization (density of CD31+ vessels)” value (NPY pellet 1 μg/14 days alongside the xenograft) is “increased”. For the same substance, the “xenograft 3-month survival” value (NPY pellet 1 μg/14 days, placebo-treated grafts underwent resorption) was “increased”. In addition, under setting [1], the “areas of more dense necrotic tissue (ultrasound)” value is “more in NPY-treated than placebo-treated” and the “vacuolization / holes in fat pads (ultrasound, IHC)” value is reported as “more holes in the placebo-pellet treated fat pads; also recorded: more numerous in placebo-treated than NPY-treated fat pads”.
